Data on three molecules can be found in patent US20230181727A1, “COMPOSITION OF NANOPARTICLES” (priority 2020, published 2023).

The nature of data set [1]: Solubility enhancement of epitopes (solubility in water). It counts as physicochemical. The text has this:
On the N-terminal site of the enzymatically cleaved linker the addition of polar amino acids can be used to enhance the solubility of the whole peptide. […] The use in a human vaccine is difficult. In animal studies researchers dissolve it in DMSO. The solubility after e.g. subcutaneous injection is questionable: dilution might result in precipitation of large peptide particles, which is very unfavorable for transport to lymphnodes.
According to the invention the epitope […] was enlarged on the N-terminal site with the enzymatic cleavable linker Val-Cit and the cationic solubilizing sequence Lys-Lys-Lys, leading to […]

The subject of data set [2] is DC2.4 cells. The experiment in a line: MHC I cross presentation of OVA 257-264 in DC2.4 cells. It counts as cell-based, murine. The conditions noted are these: 5 μM, 6 h incubation, 25-D1.16 antibody, flow cytometry. The procedure:
In the experiment, the OVA257-264 presentation efficacy after incubation of 5.10^4 DC2.4 cells with 5 μM solutions of full length protein (OVA=Ovalbumin), N— and C-terminal elongated epitope (OVA247-264A5K, a so called synthetic long peptide (SLP)), N-terminal elongated epitope with a Cathepsin B cleavable sequence (exemplary shown RW-Cit-OVA257-264) or native epitope (OVA257-264), each with and without nanoparticles, was compared. […] After an incubation time of 6 h, the test substances are removed by washing with phosphate-buffered saline (PBS). In the next step, the cells were incubated with CD1 6/CD32 antibody in order to block the non-specific binding of the detection antibody to the Fc (Fragment, crystallizable) receptor of the cells. After incubation with 25-D1.16 antibody, the amount of cross-presented OVA257-264 was quantified by flow cytometry.
FIG. 16: OVA257-264 MHC I expression after 6 h incubation of H2-Kb positive cells with 5 μM solution of native or elongated OVA257-264 epitope or full length OVA protein with or without SiO2—PO3H2. Quantification was carried out by flow cytometry after labeling with 25-D1.16 detection antibody.

With `CC[C@H](C)[C@H](NC(=O)CNC(=O)[C@H](CC(C)C)NC(=O)[C@@H](NC(=O)CNC(=O)[C@H](CCSC)NC(=O)[C@H](CC(C)C)NC(=O)[C@H](CC(C)C)NC(=O)[C@H](CCCNC(N)=O)NC(=O)[C@@H](NC(=O)[C@H](CCCCN)NC(=O)[C@H](CCCCN)NC(=O)[C@@H](N)CCCCN)C(C)C)[C@@H](C)O)C(=O)N[C@H](C(=O)O)C(C)C`, in data set [1], the solubility in water entry was “excellent solubility in water”.

With SIINFEKL [OVA257-264], the “OVA257-264 MHC I expression” value in data set [2] is on record as “presented in significant amounts”.

As to `CC[C@H](C)[C@H](NC(=O)CNC(=O)[C@H](CC(C)C)NC(=O)[C@@H](NC(=O)CNC(=O)[C@H](CCSC)NC(=O)[C@H](CC(C)C)NC(=O)[C@@H](N)CC(C)C)[C@@H](C)O)C(=O)N[C@H](C(=O)O)C(C)C`, in data set [1], the solubility in water result is given as “very bad solubility in water”.
